Data reported in patent US5385893A, “Tricyclopolyazamacrocyclophosphonic acids, complexes and derivatives thereof, for use as contrast agents” (The Dow Chemical Company, priority 1993, dated 1995).

What was measured:
[1] = Complexation: percent samarium metal as a complex (Sephadex column); type: physicochemical
Description: Metal ligand complexes were prepared by various methods. The methods included mixing of the metal and ligand in aqueous solution and adjusting the pH to the desired value. Complexation was done in solutions containing salts and/or buffers as well as water.
For example, a solution of the ligand is prepared by dissolving the ligand in deionized water (about pH=2). A ligand/metal complex was then prepared by combining the ligand solution with aqueous SmCl3.H2 O (3×^-4 M in 0.01N HCl) containing tracer ^153 SmCl3. After thorough mixing, the percent metal as a complex was determined by passing a sample of the complex solution through a Sephadex™ column, eluting with 4:1 saline (0.85% NaCl/NH4 OH), and collecting 2×3 mL fractions. The amount of radioactivity in the combined elutions was then compared with that left on the resin. Under these conditions, complex was removed with the eluent and non-complexed metal is retained on the resin. By this method complexation was determined to usually be about 95% or greater.
Using the above procedure, the complexes of samarium with […]

[2] = Biodistribution of 153Sm complexes in rats (% injected dose per organ, NaI scintillation counting after tail vein injection); type: in vivo, Sprague Dawley rats; conditions: 2 hours post injection; for Biodistribution: Brain / Biodistribution: Heart / Biodistribution: Kidney / Biodistribution: Large Intestine / Biodistribution: Liver / Biodistribution: Lung / Biodistribution: Small Intestine / Biodistribution: Spleen / Biodistribution: Stomach / Biodistribution: Blood / Biodistribution: Bone / Biodistribution: Muscle: i.v. tail vein; for Biodistribution: Blood: blood assumed 6.5% of body weight; for Biodistribution: Bone: femur x 25; for Biodistribution: Muscle: muscle assumed 43% of body weight; for Ratio Bone/Blood / Ratio Bone/Liver / Ratio Bone/Muscle / Ratio Bone/Spleen: ratio of average % injected dose
Description: A stock ^159 GdCl3 (or ^153 SMCl3) solution was prepared by adding 2 μL of 3×10^-4 M ^159 GdCl3 in 0.1N HCl to 2 mL of a 3×10^-4 M GdCl3 carrier solution. Appropriate ligand solutions were then prepared in deionized water. The 1:1 ligand/metal complexes were then prepared by combining the ligands (dissolved in 100-500 μL of deionized water) with 2 mL of the stock ^159 GdCl3 solution, followed by through mixing to give an acidic solution (pH=2). The pH of the solution was then raised to 7.0 using 0.1N NaOH. The percent metal as a complex was then determined by passing a sample of the complex solution through a Sephadex™ G-50 column, eluting with 4:1 saline ([…]) and collecting 2×3 mL fractions. The amount of radioactivity in the combined elutions was then compared with that left on the resin (non-complexed metal is retained on the resin). The pH stability profile was generated by adjusting the pH of an aliquot of the complex solution using 1M NaOH or 1M HCl and determining the percent of the metal existing as a complex using the ion exchange method described above. The Sm results are known by expermintal comparison to be identical for complexation and biodistribution of the ligands of this invention.
Sprague Dawley rats were allowed to acclimate for five days then injected with 100 μL of the complex solution via a tail vein. The rats weighed between 150 and 250 g at the time of injection. […] The amount of radioactivity in each tissue was determined by counting in a NaI scintillation counter coupled to a multichannel analyzer. The counts were compared to the counts in 100 μL standards in order to determine the percentage of the dose in each tissue or organ.
The percent dose in blood was estimated assuming blood to be 6.5% of the total body weight. The percent dose in bone was estimated by multiplying the percent dose in the femur by 25. The percent dose in muscle was estimated assuming muscle to be 43% of the total body weight.
In addition to organ biodistribution, chelates of the compounds of Formula (I) were evaluated for efficiency of bone localization since phosphonates are known for their ability to bind to hydroxyapatite.

[3] = Biolocalization of complexes having an overall charge of +1 (bone uptake); type: in vivo; conditions: complex having an overall charge of +1
[4] = Prohance versus Magnevist; cited from earlier work
[5] = in vivo; cited from earlier work
[6] = breakdown of the blood/brain barrier allows perfusion; cited from earlier work

Row | SMILES | Biodistribution: Brain [2] [% INJECTED DOSE] | Biodistribution: Heart [2] [% INJECTED DOSE] | Biodistribution: Kidney [2] [% INJECTED DOSE] | Biodistribution: Large Intestine [2] [% INJECTED DOSE] | Biodistribution: Liver [2] [% INJECTED DOSE] | Biodistribution: Lung [2] [% INJECTED DOSE] | Biodistribution: Small Intestine [2] [% INJECTED DOSE] | Biodistribution: Spleen [2] [% INJECTED DOSE] | Biodistribution: Stomach [2] [% INJECTED DOSE] | Biodistribution: Blood [2] [% INJECTED DOSE] | Biodistribution: Bone [2] [% INJECTED DOSE] | Biodistribution: Muscle [2] [% INJECTED DOSE] | Ratio Bone/Blood [2] | Ratio Bone/Liver [2] | Ratio Bone/Muscle [2] | Ratio Bone/Spleen [2] | also measured
1 | O=P(O)(O)CN1Cc2cccc(n2)CN(CP(=O)(O)O)Cc2cccc(n2)C1 [BP2P, N,N'-bis (methylenephosphonic acid) -2,11-diaza[3.3](2,6)pyridinophane] |  |  |  |  |  |  |  |  |  |  |  |  |  |  |  |  | percent metal as a complex ([1]; ligand:metal ratio of 3:1): 95%
2 | O=C([O-])CN1Cc2cccc(n2)CN(CC(=O)[O-])Cc2cccc(n2)C1.[153Sm+3] [^153 Sm-BP2A, ^153 Sm N,N'-diacetic acid-2,11-diaza[3.3](2,6)pyridinophane] | 0.01 | 0.02 | 0.95 | 0.04 | 0.68 | 0.06 | 0.80 | 0.01 | 0.05 | 0.43 | 27.98 | 0.80 | 65 | 41 | 35 | 2,798 | 
3 | O=C(O)CN1Cc2cccc(n2)CN(CC(=O)O)Cc2cccc(n2)C1 [BP2A, N,N'-diacetic acid-2,11-diaza[3.3]-(2,6)pyridinophane] |  |  |  |  |  |  |  |  |  |  |  |  |  |  |  |  | percent metal as a complex ([1]; ligand:metal ratio of 4:1): 99%; bone uptake of complex [3]: displays bone uptake
4 | O=C([O-])CN1Cc2cccc(n2)CN(CC(=O)[O-])Cc2cccc(n2)CN(CC(=O)[O-])Cc2cccc(n2)C1.[153Sm+3] [^153 Sm-TP3A, ^153 Sm N,N',N"-triacetic acid-2,11,20-diaza[3.3.3](2,6)pyridinophane] |  | 0.016 | 0.639 | 0.156 | 0.570 | 0.047 | 1.426 | 0.068 | 0.036 | 0.437 | 1.495 | 0.833 | 3 | 3 | 2 | 22 | 
5 | CC(O)CN1CCN(CC(=O)[O-])CCN(CC(=O)[O-])CCN(CC(=O)[O-])CC1.[Gd+3] (stereo not drawn) [Prohance, [1,4,7-tris(carboxymethyl)-10-(2-hydroxypropyl)-1,4,7,10-tetraazacyclododecanato]-gadolinium] |  |  |  |  |  |  |  |  |  |  |  |  |  |  |  |  | side effects [4]: fewer side effects than Magnevist; distribution and elimination [5]: freely distribute in extracellular fluid followed by efficient elimination through the renal system
6 | O=C(O)CN1Cc2cccc(n2)CN(CC(=O)O)Cc2cccc(n2)CN(CC(=O)O)Cc2cccc(n2)C1 [TP3A, N,N',N"-triacetic acid-2,11,20-diaza[3.3.3](2,6)pyridinophane] |  |  |  |  |  |  |  |  |  |  |  |  |  |  |  |  | percent metal as a complex ([1]; ligand:metal ratio of 3:1): 98.6%
7 | CCOP(=O)([O-])CN1Cc2cccc(n2)CN(CP(=O)([O-])OCC)Cc2cccc(n2)C1.[153Sm+3] [^153 Sm-BP2EP, ^53 Sm N,N'-bis(methylenephosphonic acid ethyl ester)-2,11-diaza[3.3](2,6)pyridinophane] | 0.01 | 0.04 | 0.74 | 0.25 | 5.97 | 0.19 | 0.33 | 0.32 | 0.36 | 0.45 | 39.82 | 1.21 | 88 | 7 | 33 | 124 | 
8 | CCOP(=O)(O)CN1Cc2cccc(n2)CN(CP(=O)(O)OCC)Cc2cccc(n2)C1 [BP2EP, N,N'-bis(methylenephosphonic acid ethyl ester)-2,11-diaza[3.3](2,6)pyridinophane] |  |  |  |  |  |  |  |  |  |  |  |  |  |  |  |  | percent metal as a complex ([1]; ligand:metal ratio of 4:1): 98%
9 | O=P([O-])([O-])CN1Cc2cccc(n2)CN(CP(=O)([O-])[O-])Cc2cccc(n2)C1.[153Sm+3] [^153 Sm-BP2P, ^153 Sm N,N'-bis(methylenephosphonic acid)-2,11-diaza[3.3](2,6)pyridinophane] | 0.01 | 0.07 | 1.21 | 0.13 | 3.71 | 0.17 | 0.39 | 0.05 | 0.20 | 0.87 | 60.08 | 1.53 | 69 | 16 | 39 | 1,201 | 
10 | CNC[C@H](O)[C@@H](O)[C@H](O)[C@H](O)CO.CNC[C@H](O)[C@@H](O)[C@H](O)[C@H](O)CO.O=C([O-])CN(CCN(CC(=O)[O-])CC(=O)O)CCN(CC(=O)[O-])CC(=O)O.[Gd+3] [Magnevist, complex of gadolinium with diethylenetriaminepentaacetic acid] |  |  |  |  |  |  |  |  |  |  |  |  |  |  |  |  | usefulness in the diagnosis of brain lesions [6]: extremely valuable in the diagnosis of brain lesions; distribution and elimination [5]: freely distribute in extracellular fluid followed by efficient elimination through the renal system
